The values below come from ChEMBL document CHEMBL1122106, “Quantitative structure-activity relationship by distance geometry: quinazolines as dihydrofolate reductase inhibitors” (J Med Chem, 1982).

Molecules are shown by their SMILES.

For the assay, the system named is Dihydrofolate reductase (Enterococcus faecium).
With `Nc1nc(S)c2cc(S(=O)(=O)c3ccc4ccccc4c3)ccc2n1`, the -Delta G was found to be 8 kcal/mol.

Molecule `Nc1ncnc2ccc(S(=O)(=O)c3ccc4ccccc4c3)cc12` had a -Delta G of 5.8 kcal/mol.

Regarding `Nc1nc(O)c2cc(Sc3ccc(Cl)c(Cl)c3)ccc2n1`, the -Delta G was 9.1 kcal/mol.

In the case of `Nc1ncnc2ccc(Sc3ccc4ccccc4c3)cc12`, the -Delta G stood at 6.5 kcal/mol.

The molecule `Nc1nc(O)c2c(S(=O)(=O)c3ccc4ccccc4c3)cccc2n1` registered a -Delta G of 9 kcal/mol.

With `Nc1nc(N)c2c(Sc3ccc(Cl)c(Cl)c3)cccc2n1`, the -Delta G stood at 9.9 kcal/mol.

`CCOC(=O)c1ccc(NCc2ccc3nc(N)nc(N)c3c2)cc1` returned a -Delta G of 11.4 kcal/mol.

The molecule `Nc1nc(O)nc2ccc(Sc3ccc4ccccc4c3)cc12` returned a -Delta G of 6.9 kcal/mol.

Take `Nc1nc(O)c2cc(S(=O)(=O)c3ccc4ccccc4c3)ccc2n1`: the -Delta G turned out to be 9.6 kcal/mol.

`O=c1[nH]c(=O)c2cc(Sc3ccc4ccccc4c3)ccc2[nH]1` showed a -Delta G of 6.9 kcal/mol.

`CCOC(=O)c1ccc(CNc2ccc3nc(N)nc(O)c3c2Cl)cc1` gave a -Delta G of 9.3 kcal/mol.

For `Nc1nc(N)c2cc(Sc3ccc(Cl)c(Cl)c3)ccc2n1`, the -Delta G was 12.2 kcal/mol.

On to `CCOC(=O)c1ccc(CNc2ccc3nc(N)nc(N)c3c2Cl)cc1`, for which the -Delta G turned out to be 12.2 kcal/mol.

On to `CCOC(=O)c1ccc(NCc2ccc3nc(N)nc(N)c3c2Cl)cc1`, for which the -Delta G turned out to be 12.8 kcal/mol.

Molecule `Nc1nc(N)c2c(/C=C\c3ccc4ccccc4c3)cccc2n1` came in with a -Delta G of 11.1 kcal/mol.

In turn, `Nc1nc(N)c2c(/C=C/c3ccc4ccccc4c3)cccc2n1` gave a -Delta G of 10.7 kcal/mol.

`CCCCOC(=O)c1ccc(NCc2ccc3nc(N)nc(N)c3c2C)cc1` had a -Delta G of 12.1 kcal/mol.

With `Nc1ncnc2ccc([S+]([O-])c3ccc4ccccc4c3)cc12` (stereo not drawn), the -Delta G turned out to be 7.2 kcal/mol.

Regarding `Nc1nc(O)c2cc(Sc3ccc4ccccc4c3)ccc2n1`, the -Delta G is 10.2 kcal/mol.

Take `Nc1nc(N)c2cc(S(=O)(=O)c3ccc4ccccc4c3)ccc2n1`: the -Delta G is 12.4 kcal/mol.

In the case of `Nc1nc(N)c2c([S+]([O-])c3ccc4ccccc4c3)cccc2n1` (stereo not drawn), the -Delta G came out at 6.9 kcal/mol.

On to `Nc1nc(S)nc2ccc(Sc3ccc4ccccc4c3)cc12`, for which the -Delta G is 7.4 kcal/mol.

`Nc1nc(N)c2c(CSc3ccc(Cl)cc3)cccc2n1`: the -Delta G worked out at 10.9 kcal/mol.

In the case of `Nc1nc(O)c2cc(CNc3ccc(C(=O)O)cc3)ccc2n1`, the -Delta G turned out to be 8.8 kcal/mol.

In turn, `Nc1nc(O)c2cc([S+]([O-])c3ccc4ccccc4c3)ccc2n1` (stereo not drawn) displayed a -Delta G of 8.2 kcal/mol.

In turn, `Nc1nc(O)c2c(Sc3ccc4ccccc4c3)cccc2n1` registered a -Delta G of 7.4 kcal/mol.

`Nc1nc(N)c2cc(S(=O)(=O)c3ccc(Cl)c(Cl)c3)ccc2n1` yielded a -Delta G of 13.4 kcal/mol.

`Nc1nc(N)c2c(Cl)c(CNc3ccc(C(=O)O)cc3)ccc2n1` showed a -Delta G of 12.3 kcal/mol.

`Sc1nc(S)c2cc(Sc3ccc4ccccc4c3)ccc2n1` displayed a -Delta G of 6 kcal/mol.

Consider `CCCCOC(=O)c1ccc(NCc2ccc3nc(N)nc(N)c3c2)cc1`, for which the -Delta G was found to be 11.2 kcal/mol.

In the case of `CCOC(=O)c1ccc(CNc2ccc3nc(N)nc(O)c3c2C)cc1`, the -Delta G was 7.1 kcal/mol.

In turn, `O=c1[nH]c(=S)c2cc(Sc3ccc4ccccc4c3)ccc2[nH]1` registered a -Delta G of 6.8 kcal/mol.

In turn, `Oc1nc(S)nc2ccc(Sc3ccc4ccccc4c3)cc12` registered a -Delta G of 6.2 kcal/mol.

With `CCOC(=O)c1ccc(CNc2ccc3nc(N)nc(N)c3c2)cc1`, the -Delta G was found to be 11 kcal/mol.

`Nc1nc(O)c2cc(NCc3ccc(C(=O)O)cc3)ccc2n1` came in with a -Delta G of 7.2 kcal/mol.

`Cc1c(CNc2ccc(C(=O)O)cc2)ccc2nc(N)nc(N)c12` returned a -Delta G of 11.8 kcal/mol.

The molecule `CCCCOC(=O)c1ccc(NCc2ccc3nc(N)nc(N)c3c2Cl)cc1` yielded a -Delta G of 11.4 kcal/mol.

Consider `Nc1nc(N)c2cc(CNc3ccc(C(=O)O)cc3)ccc2n1`, for which the -Delta G stood at 13 kcal/mol.

`Nc1nc(N)c2c(Sc3ccc4ccccc4c3)cccc2n1` yielded a -Delta G of 10.9 kcal/mol.

`Cc1c(NCc2ccc(C(=O)O)cc2)ccc2nc(N)nc(O)c12` came in with a -Delta G of 6.5 kcal/mol.

As for `Nc1nc(N)c2c(CCc3ccc4ccccc4c3)cccc2n1`, the -Delta G was 11.9 kcal/mol.

In turn, `Nc1nc(N)c2cc([S+]([O-])c3ccc4ccccc4c3)ccc2n1` (stereo not drawn) returned a -Delta G of 12.8 kcal/mol.

As to `Nc1nc(N)c2c(S(=O)(=O)c3ccc(Cl)c(Cl)c3)cccc2n1`, the -Delta G amounted to 9 kcal/mol.

The molecule `CCOC(=O)c1ccc(CNc2ccc3nc(N)nc(O)c3c2)cc1` showed a -Delta G of 8.6 kcal/mol.

`Nc1nc(O)c2cc(S(=O)(=O)c3ccc(Cl)c(Cl)c3)ccc2n1`: the -Delta G is 8.2 kcal/mol.

`Nc1nc(N)c2c(S(=O)(=O)c3ccc4ccccc4c3)cccc2n1` registered a -Delta G of 6.5 kcal/mol.

The molecule `Nc1nc(S)c2cc(Sc3ccc4ccccc4c3)ccc2n1` gave a -Delta G of 9.3 kcal/mol.

`CCOC(=O)c1ccc(NCc2ccc3nc(N)nc(O)c3c2)cc1` showed a -Delta G of 10.6 kcal/mol.

Molecule `Cc1c(CNc2ccc(C(=O)NC(CC(=O)O)C(=O)O)cc2)ccc2nc(N)nc(N)c12` (stereo not drawn) returned a -Delta G of 12.7 kcal/mol.

As to `CCOC(=O)c1ccc(NCc2ccc3nc(N)nc(N)c3c2C)cc1`, the -Delta G was found to be 12.3 kcal/mol.

The molecule `Nc1nc(N)c2c([S+]([O-])c3ccc(Cl)c(Cl)c3)cccc2n1` (stereo not drawn) came in with a -Delta G of 7.3 kcal/mol.

As to `CCOC(=O)c1ccc(CNc2ccc3nc(N)nc(N)c3c2C)cc1`, the -Delta G came to 13.1 kcal/mol.

Take `Nc1nc(N)c2cc(Sc3cccc(C(F)(F)F)c3)ccc2n1`: the -Delta G was 13.4 kcal/mol.
